According to ChEMBL document CHEMBL5046291, “Evodiamine-Inspired Topoisomerase-Histone Deacetylase Dual Inhibitors: Novel Orally Active Antitumor Agents for Leukemia Therapy” (J Med Chem, 2022):
pIC50: −log10 of the molar value. Activity calls are given as the source filed them. The calls are words filed in the database; no cut-off is given here.

Experiments:
[1] = target: DNA topoisomerase 2-alpha (Homo sapiens) (UniProt P11388); assay: Inhibition of recombinant Top2 (unknown origin) assessed as inhibition of relaxation of supercoiled pBR322 plasmid DNA at 50 uM incubated for 15 mins by ethidium bromide staining based agarose gel electrophoresis analysis
Sequence of DNA topoisomerase 2-alpha (Homo sapiens) (P11388 whole entry): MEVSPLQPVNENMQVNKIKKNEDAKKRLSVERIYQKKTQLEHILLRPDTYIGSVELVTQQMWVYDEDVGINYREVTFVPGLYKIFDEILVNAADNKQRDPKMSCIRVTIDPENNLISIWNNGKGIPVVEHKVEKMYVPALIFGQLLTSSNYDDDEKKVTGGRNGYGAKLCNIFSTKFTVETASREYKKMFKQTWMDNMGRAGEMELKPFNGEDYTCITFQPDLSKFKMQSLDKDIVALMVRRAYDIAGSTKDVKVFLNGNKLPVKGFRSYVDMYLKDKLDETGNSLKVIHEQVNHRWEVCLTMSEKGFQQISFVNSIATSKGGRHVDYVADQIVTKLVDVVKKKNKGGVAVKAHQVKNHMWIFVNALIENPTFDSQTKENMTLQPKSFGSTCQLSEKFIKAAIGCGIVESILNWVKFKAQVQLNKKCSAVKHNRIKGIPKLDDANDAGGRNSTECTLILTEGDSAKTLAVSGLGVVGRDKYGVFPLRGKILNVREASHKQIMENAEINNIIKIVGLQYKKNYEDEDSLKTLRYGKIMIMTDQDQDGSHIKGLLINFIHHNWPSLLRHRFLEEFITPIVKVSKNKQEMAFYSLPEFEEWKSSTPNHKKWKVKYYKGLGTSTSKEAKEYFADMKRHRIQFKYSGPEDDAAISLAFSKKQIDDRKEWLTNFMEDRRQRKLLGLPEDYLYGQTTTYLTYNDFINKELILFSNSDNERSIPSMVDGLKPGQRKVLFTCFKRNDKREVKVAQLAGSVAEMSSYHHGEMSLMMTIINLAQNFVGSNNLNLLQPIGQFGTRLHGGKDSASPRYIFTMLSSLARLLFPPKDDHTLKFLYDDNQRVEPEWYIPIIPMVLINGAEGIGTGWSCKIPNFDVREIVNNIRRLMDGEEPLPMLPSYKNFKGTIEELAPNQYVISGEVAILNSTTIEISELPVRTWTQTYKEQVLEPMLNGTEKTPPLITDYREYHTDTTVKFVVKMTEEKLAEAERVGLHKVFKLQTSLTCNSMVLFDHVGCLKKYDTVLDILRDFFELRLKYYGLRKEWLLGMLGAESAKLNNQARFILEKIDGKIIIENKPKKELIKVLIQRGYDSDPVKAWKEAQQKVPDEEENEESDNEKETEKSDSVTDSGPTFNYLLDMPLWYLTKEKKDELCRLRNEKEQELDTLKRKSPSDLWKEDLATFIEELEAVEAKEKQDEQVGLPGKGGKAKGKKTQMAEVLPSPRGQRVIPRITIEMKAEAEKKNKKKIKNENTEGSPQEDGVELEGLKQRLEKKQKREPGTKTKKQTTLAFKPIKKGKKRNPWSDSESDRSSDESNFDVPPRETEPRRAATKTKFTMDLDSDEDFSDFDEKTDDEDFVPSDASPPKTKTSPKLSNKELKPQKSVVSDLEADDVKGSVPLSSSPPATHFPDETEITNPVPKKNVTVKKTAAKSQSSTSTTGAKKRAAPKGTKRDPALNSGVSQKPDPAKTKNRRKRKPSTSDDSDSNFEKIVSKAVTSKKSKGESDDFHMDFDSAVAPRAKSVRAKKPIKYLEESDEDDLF

[2] = target: Histone deacetylase 3 (Homo sapiens, UniProt O15379); assay: (§1) Inhibition of recombinant His-tagged human HDAC3 expressed in baculovirus infected insect cells using Ac-Leu-Gly-Lys(Ac)-AMC as substrate preincubated for 5 mins followed by substrate addition and further incubated for 30 mins by fluorescence based microtiter plate reader assay
Sequence of Histone deacetylase 3 (O15379 whole entry): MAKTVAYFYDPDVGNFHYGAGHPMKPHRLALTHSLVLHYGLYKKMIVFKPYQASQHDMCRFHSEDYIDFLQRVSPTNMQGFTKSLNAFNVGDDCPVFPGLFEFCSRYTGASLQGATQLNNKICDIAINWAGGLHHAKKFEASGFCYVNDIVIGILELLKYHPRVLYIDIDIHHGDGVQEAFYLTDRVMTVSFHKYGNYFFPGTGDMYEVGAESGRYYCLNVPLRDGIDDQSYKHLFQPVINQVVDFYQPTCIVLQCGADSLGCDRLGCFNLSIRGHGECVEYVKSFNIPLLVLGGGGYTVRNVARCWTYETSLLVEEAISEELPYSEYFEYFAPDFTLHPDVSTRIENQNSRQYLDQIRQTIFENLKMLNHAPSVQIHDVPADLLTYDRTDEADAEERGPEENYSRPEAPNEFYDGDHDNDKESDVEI

[3] = target: T1, Protein deacetylase HDAC6 (Homo sapiens, UniProt Q9UBN7); assay: Inhibition of full-length recombinant N-terminal GST-tagged human HDAC6 expressed in baculovirus infected Sf9 cells using Ac-Leu-Gly-Lys(Ac)-AMC as substrate preincubated for 5 mins followed by substrate addition and further incubated for 30 mins by fluorescence based microtiter plate reader assay
T1 sequence (Q9UBN7 whole entry): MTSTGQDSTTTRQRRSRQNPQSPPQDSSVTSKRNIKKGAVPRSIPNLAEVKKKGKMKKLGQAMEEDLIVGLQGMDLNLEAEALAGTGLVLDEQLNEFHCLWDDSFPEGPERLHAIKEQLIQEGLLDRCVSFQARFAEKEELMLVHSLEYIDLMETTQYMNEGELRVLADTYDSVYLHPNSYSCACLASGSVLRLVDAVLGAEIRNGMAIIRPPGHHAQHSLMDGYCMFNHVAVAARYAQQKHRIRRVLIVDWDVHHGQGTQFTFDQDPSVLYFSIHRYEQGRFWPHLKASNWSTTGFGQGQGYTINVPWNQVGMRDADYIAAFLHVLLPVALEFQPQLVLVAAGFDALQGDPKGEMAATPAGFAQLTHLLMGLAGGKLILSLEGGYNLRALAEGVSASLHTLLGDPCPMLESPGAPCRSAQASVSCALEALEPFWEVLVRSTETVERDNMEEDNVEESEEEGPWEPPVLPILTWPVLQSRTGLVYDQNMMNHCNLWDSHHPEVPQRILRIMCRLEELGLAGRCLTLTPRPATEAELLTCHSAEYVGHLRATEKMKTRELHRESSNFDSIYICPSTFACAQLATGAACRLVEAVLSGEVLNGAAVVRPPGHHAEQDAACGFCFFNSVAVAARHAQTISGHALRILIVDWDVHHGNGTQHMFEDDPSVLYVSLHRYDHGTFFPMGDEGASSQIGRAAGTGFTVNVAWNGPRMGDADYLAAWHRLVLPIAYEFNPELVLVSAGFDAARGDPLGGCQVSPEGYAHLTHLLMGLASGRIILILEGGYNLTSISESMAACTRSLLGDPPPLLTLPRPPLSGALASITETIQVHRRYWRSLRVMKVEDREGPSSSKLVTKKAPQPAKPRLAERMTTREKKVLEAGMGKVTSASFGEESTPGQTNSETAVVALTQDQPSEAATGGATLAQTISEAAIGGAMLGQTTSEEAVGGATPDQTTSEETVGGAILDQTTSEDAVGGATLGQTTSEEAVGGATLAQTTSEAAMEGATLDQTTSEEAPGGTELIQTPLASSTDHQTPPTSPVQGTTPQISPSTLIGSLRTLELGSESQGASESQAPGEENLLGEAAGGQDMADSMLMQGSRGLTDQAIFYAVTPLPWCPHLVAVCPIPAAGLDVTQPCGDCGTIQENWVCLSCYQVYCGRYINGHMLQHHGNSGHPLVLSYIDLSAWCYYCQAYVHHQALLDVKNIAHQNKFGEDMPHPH

[4] = target: T2, Histone deacetylase 8 (Homo sapiens, UniProt Q9BY41); assay: Inhibition of full-length recombinant C-terminal His-tagged human HDAC8 expressed in baculovirus infected Sf9 insect cells using Ac-Leu-Gly-Lys(Tfa)-AMC as substrate preincubated for 5 mins followed by substrate addition and further incubated for 30 mins by fluorescence based microtiter plate reader assay
T2 sequence (Q9BY41 whole entry): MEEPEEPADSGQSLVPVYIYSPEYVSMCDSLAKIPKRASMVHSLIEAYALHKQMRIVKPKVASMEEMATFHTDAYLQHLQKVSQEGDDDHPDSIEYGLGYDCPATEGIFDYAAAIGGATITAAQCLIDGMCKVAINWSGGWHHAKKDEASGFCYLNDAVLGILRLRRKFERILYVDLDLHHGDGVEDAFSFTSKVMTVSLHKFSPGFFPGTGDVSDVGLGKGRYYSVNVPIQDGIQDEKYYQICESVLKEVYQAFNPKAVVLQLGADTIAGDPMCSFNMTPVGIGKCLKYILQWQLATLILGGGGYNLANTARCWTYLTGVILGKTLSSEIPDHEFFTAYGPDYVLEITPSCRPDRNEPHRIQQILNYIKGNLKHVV

[5] = target: T3, Histone deacetylase 1 (Homo sapiens, UniProt Q13547); assay: In vivo inhibition of HDAC1 in HEL cells xenografted in BALB/C mouse assessed as upregulation of acetyl-H3 levels at 5 to 10 mg/kg by immunohistochemical staining method; type: functional, organism-based; details: dose 5-10 mg/kg
T3 sequence (Q13547 whole entry): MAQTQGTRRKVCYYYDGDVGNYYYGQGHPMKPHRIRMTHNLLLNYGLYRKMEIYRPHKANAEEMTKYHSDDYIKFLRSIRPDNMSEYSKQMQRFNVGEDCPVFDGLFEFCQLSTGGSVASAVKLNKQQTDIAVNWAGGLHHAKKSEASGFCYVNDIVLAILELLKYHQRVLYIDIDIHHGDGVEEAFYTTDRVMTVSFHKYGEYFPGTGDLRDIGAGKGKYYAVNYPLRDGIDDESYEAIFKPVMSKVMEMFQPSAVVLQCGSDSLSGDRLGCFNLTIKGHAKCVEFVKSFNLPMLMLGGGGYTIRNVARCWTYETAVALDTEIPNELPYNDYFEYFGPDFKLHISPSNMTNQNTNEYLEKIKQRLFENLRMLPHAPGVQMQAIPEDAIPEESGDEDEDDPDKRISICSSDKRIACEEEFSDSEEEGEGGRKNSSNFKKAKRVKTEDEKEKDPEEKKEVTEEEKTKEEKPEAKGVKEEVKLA

[6] = Metabolic stability in ICR mouse liver microsome assessed as clearance; type: ADME; details: microsomes
[7] = tested on: HEL; assay: Antiproliferative activity against HEL cells assessed as cell growth inhibition incubated for 8 hrs by CCK8 assay; type: functional, cell-based; details: Homo sapiens
[8] = target: Histone deacetylase 2 (Homo sapiens, UniProt Q92769); assay: as §1, with “full length C-terminal GST tagged” for “His-tagged”, “HDAC2” for “HDAC3”, “infected Sf9” for “infected”
Sequence of Histone deacetylase 2 (Q92769 whole entry): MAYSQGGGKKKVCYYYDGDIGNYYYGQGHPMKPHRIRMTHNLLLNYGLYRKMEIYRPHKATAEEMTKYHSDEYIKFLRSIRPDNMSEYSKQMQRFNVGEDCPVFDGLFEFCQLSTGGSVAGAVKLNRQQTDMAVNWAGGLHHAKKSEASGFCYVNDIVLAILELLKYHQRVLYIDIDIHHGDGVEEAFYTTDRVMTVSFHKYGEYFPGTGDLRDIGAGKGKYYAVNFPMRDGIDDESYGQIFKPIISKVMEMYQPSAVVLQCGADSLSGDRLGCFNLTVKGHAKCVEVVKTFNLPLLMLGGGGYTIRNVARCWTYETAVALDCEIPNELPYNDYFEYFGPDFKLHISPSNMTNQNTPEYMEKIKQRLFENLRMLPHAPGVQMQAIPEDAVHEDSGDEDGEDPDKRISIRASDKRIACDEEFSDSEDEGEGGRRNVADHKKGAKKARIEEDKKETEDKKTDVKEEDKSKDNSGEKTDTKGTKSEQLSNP

[9] = target: T3, Histone deacetylase 1; assay: Inhibition of full-length recombinant human HDAC1 expressed in Baculovirus expression system using Ac-Leu-Gly-Lys(Ac)-AMC as substrate preincubated for 5 mins followed by substrate addition and further incubated for 30 mins by fluorescence based microtiter plate reader assay
[10] = target: Histone deacetylase (Homo sapiens) (UniProt Q13547+O15379+Q9UBN7+Q92769+Q9UQL6+Q8WUI4+Q9BY41+Q96DB2+P56524+Q9UKV0+Q969S8); assay: In vivo inhibition of HDAC in HEL cells xenografted in BALB/C mouse assessed as upregulation of caspase-9 levels at 5 to 10 mg/kg by immunohistochemical staining method; type: functional, organism-based; details: dose 5-10 mg/kg
[11] = tested on: HEL; assay: Antitumor activity against HEL cells xenografted in BALB/C mouse assessed as tumor growth inhibition at 5 mg/kg, po qd for 14 days consecutively by caliper method relative to control; type: functional, Homo sapiens; details: 336 h, time 14 day, read-out: TGI

SMILES: CN1c2ccc(F)cc2C(=O)N2CCc3c([nH]c4ccc(OCc5ccc(/C=C/C(=O)NO)cc5)cc34)C21 (stereo unspecified)
- inhibition [1]: Active
- pIC50 [2]: 7.23
- pIC50 [3]: 7.05
- pIC50 [4]: 5.01
- inhibition [5]: Active
- CLH [6]: 173 mL/min/kg
- pIC50 [7]: 7.54
- pIC50 [8]: 6.85
- pIC50 [9]: 7.44
- inhibition [10]: Active
- inhibition in vivo at 5 mg/kg [11]: 41.4%
